What was measured:
Test in all cases: relative viability (nuclei count vs DMSO), 5 days (fraction); higher = more cells survive
Motesanib + Alpelisib = compound: CC1(C)CNc2cc(NC(=O)c3cccnc3NCc3ccncc3)ccc21 [Motesanib] + Cc1nc(NC(=O)N2CCC[C@H]2C(N)=O)sc1-c1ccnc(C(C)(C)C(F)(F)F)c1 [Alpelisib] (partner 2 µM)
Procedure, shortened: (§1)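 For relative viability, nuclei counts in treated wells were divided by those in vehicle wells. Lung cancer cell lines had been pin-tool dosed in 1536-well plates the day after seeding and cultured for 5 days, then fixed and stained in one step (final 0.05% Triton X-100, 1% formaldehyde, 1 ug/ml Hoechst) and imaged at 4×. Doses were one drug alone or a fixed anchor-drug dose plus five library-drug doses (not always all listed) in √10 steps, and values are duplicate-plate medians.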

Motesanib + Dasatinib = compound: CC1(C)CNc2cc(NC(=O)c3cccnc3NCc3ccncc3)ccc21 [Motesanib] + Cc1nc(Nc2ncc(C(=O)Nc3c(C)cccc3Cl)s2)cc(N2CCN(CCO)CC2)n1 [Dasatinib] (partner 0.075 µM)
Procedure, shortened: as §1

[1] = compound: C[C@@]1(C(=O)Nc2ccc(F)nc2)CCCN1c1nc(Nc2cc(C3CC3)n[nH]2)c2cccn2n1 + COc1cc2c(Oc3ccc(NC(=O)C4(C(=O)Nc5ccc(F)cc5)CC4)cc3F)ccnc2cc1OCCCN1CCOCC1 [Foretinib] (partner 0.25 µM)
Procedure, shortened: as §1

[2] = compound: C[C@@]1(C(=O)Nc2ccc(F)nc2)CCCN1c1nc(Nc2cc(C3CC3)n[nH]2)c2cccn2n1 + C[C@@H](Oc1cc(-c2cnn(C3CCNCC3)c2)cnc1N)c1c(Cl)ccc(F)c1Cl [Crizotinib] (partner 1 µM)
Procedure, shortened: as §1

| Cell Line | relative viability (Motesanib + Alpelisib; first compound 0.01 µM) | relative viability (Motesanib + Alpelisib; first compound 0.03162 µM) | relative viability (Motesanib + Alpelisib; first compound 0.1 µM) | relative viability (Motesanib + Alpelisib; first compound 0.3162 µM) | relative viability (Motesanib + Alpelisib; first compound 1 µM) | relative viability (Motesanib + Dasatinib; first compound 0.01 µM) | relative viability (Motesanib + Dasatinib; first compound 0.03162 µM) | relative viability (Motesanib + Dasatinib; first compound 0.1 µM) | relative viability (Motesanib + Dasatinib; first compound 0.3162 µM) | relative viability (Motesanib + Dasatinib; first compound 1 µM) | relative viability ([1]; first compound 0.04 µM) | relative viability ([1]; first compound 0.1265 µM) | relative viability ([1]; first compound 0.4 µM) | relative viability ([1]; first compound 1.265 µM) | relative viability ([2]; first compound 0.04 µM) | relative viability ([2]; first compound 0.1265 µM) | relative viability ([2]; first compound 0.4 µM) | relative viability ([2]; first compound 1.265 µM) |
| --- | --- | --- | --- | --- | --- | --- | --- | --- | --- | --- | --- | --- | --- | --- | --- | --- | --- | --- |
| NCI-H3122 | 0.789 | 0.79 | 0.915 | 0.921 | 0.946 | 0.705 | 0.825 | 0.677 | 0.893 | 0.916 | 0.978 | 0.937 | 0.942 | 0.893 | 0.212 | 0.2 | 0.182 | 0.222 |
| PC-3 [JPC-3] | 1.09 | 1.03 | 1.07 | 1.09 | 1.03 | 0.845 | 0.989 | 0.974 | 1.04 | 0.974 | 1.08 | 1.02 | 0.959 | 1.34 | 1.03 | 0.921 | 0.905 | 1.01 |
| PC-14 | 0.958 | 1.03 | 0.998 | 0.931 | 0.958 | 0.288 | 0.286 | 0.256 | 0.298 | 0.319 | 1.04 | 0.888 | 0.813 | 0.93 | 0.901 | 0.806 | 0.758 | 0.763 |
| RERF-LC-KJ | 0.814 | 0.805 | 0.854 | 0.642 | 0.86 | 0.92 | 0.803 | 0.806 | 0.811 | 0.839 | 0.815 | 0.777 | 0.659 | 0.714 | 0.874 | 0.733 | 0.732 | 0.801 |
| SK-LU-1 | 1.11 | 1.07 | 1.17 | 0.93 | 1.05 | 0.189 | 0.189 | 0.183 | 0.198 | 0.209 | 0.782 | 0.546 | 0.602 | 0.575 | 0.824 | 0.875 | 0.715 | 0.467 |
| SK-MES-1 | 1.04 | 0.948 | 0.961 | 0.927 | 0.995 | 0.397 | 0.424 | 0.373 | 0.412 | 0.378 | 0.9 | 0.853 | 0.542 | 0.948 | 1.09 | 0.84 | 0.861 | 0.879 |
| SW 1573 | 0.825 | 0.759 | 0.75 | 0.67 | 0.821 | 0.53 | 0.447 | 0.593 | 0.552 | 0.673 | 0.744 | 0.826 | 0.494 | 0.659 | 0.665 | 0.63 | 0.509 | 0.531 |

Reference: the supplement of paper PMC10307832
